Reference: patent US10155001B2, “RAC1 inhibitors for inducing bronchodilation” (INSERM (Institut National de la Sante et de la Recherche …, priority 2013, dated 2018)
Entries after “also recorded” stand apart in the source; their conditions may differ.

Experiments:
[1] = tested on: AHR to methacholine in OVA-sensitized mice; experiment: Airway hyper-responsiveness to methacholine in OVA model of allergic asthma, plethysmography; details: for metacholine-induced airway response: summary statement: compared with SM-Rac1-KO mice in the OVA-sensitized model of allergic asthma; for AHR to methacholine: OVA-sensitized mice, nebulized before methacholine challenge, FIG. 6, E (o/o)
Description: Analysis of airways responsiveness in vivo: Airway responsiveness was assessed in conscious, unrestrained mice using a barometric, whole-body plethysmography (EMKA Technologies) by recording respiratory pressure curves in response to inhaled methacholine (Sigma) at concentrations of 0-40 mg/ml for 1 min. Airway responsiveness was expressed in enhanced pause (Penh) units. The Penh values measured after stimulation were averaged and expressed as the fold-increase over baseline values. Alternatively, dynamic airway resistance was measured using a Flexivent® apparatus (SCIREQ). In this case, mice were anesthetized by a ketamine/xylazine solution, tracheotomized, paralyzed and immediately intubated, followed by mechanical ventilation. Respiratory frequency was set at 150 breaths/min. Increasing concentrations of methacholine (0-15 mg/mL) were administered via a nebulizer aerosol system (Aeroneb, Aerogen).
Allergic asthma induction: When indicated, asthma was induced in mice by intraperitoneal injections with ovalbumin (OVA) in alum (Sigma) at D0, D14 and D21. Mice were challenged at D27, D28 and D29 through intranasal route with aerosolized OVA (50 μg in phosphate-buffered saline). These OVA-sensitized mice were used as a model of in vivo chronic asthma. Control mice were sensitized with PBS/alum and then were challenged with PBS.

[2] = tested on: bronchial rings from control and house dust mite (HDM)-sensitized mice; experiment: Contractile responses ex vivo of bronchial rings from control and house dust mite-sensitized mice; details: bronchial rings from control and HDM-sensitized mice pre-treated with inhibitor; FIG. 7
Description: (§1) Analysis of airways reactivity ex vivo: Primary bronchi were cut in 2 mm-long rings and mounted on a multichannel isometric myograph (Danish Myo Technology) containing a Krebs-Henseleit solution (118.4 mM NaCl, 4.7 mM KCl, 2 mM CaCl2, 1.2 mM MgSO4, 1.2 mM KH2PO4, 25 mM NaHCO3 and 11 mM glucose). A pre-trension of 0.5 mN was applied and maintained all along the protocol. We constructed cumulative concentration-response curves in response to KCl and methacholine (Sigma). When indicated, we pretreated rings with EHT1864 (Sigma) or NSC23766 (Calbiochem) Rac1 inhibitors at 10 μM, 1 h before contraction. Chambers wire myograph were connected to a digital data recorder (MacLab/4e, AD Instruments) and recordings were analyzed using LabChart v7 software (AD Instruments).
Allergic asthma induction: House dust mite model (HDM) of chronic asthma was used. In this case, mice were sensitized on days D0, D7, D14 and D21 by skin application of 500 μg of total extract of HDM Der f (Stallergenes) in 20 μL of dimethylsulfoxyde (DMSO, Sigma-Aldrich) on the ears. DMSO was used as an irritant able to facilitate the allergen penetration. Intranasal challenges were performed with Der f (250 μg in phosphate-buffered saline 250) on D27 and D34. Mice were sacrificed on D35 for ex vivo analysis.

[3] = tested on: methacholine-dependent bronchoconstriction; experiment: Airways responsiveness in vivo to inhaled methacholine, whole-body plethysmography, control (naive) mice; details: nebulized 10 min before methacholine challenge, FIG. 3, B and FIG. 6, E (ap/ap)
bronchial rings = experiment: Analysis of airways reactivity ex vivo: bronchial rings on isometric myograph; details: bronchial rings from SM-Rac1-KO mice; FIG. 2, A and B
Description: as §1

| SMILES | metacholine-induced airway response [1] | methacholine and KCl contractions (bronchial reactivity) [2] | methacholine-dependent bronchoconstriction (airway reactivity, Penh) [3] | AHR to methacholine [1] | KCl- and methacholine-induced contraction (bronchial rings) |
| --- | --- | --- | --- | --- | --- |
| O=c1cc(CN2CCOCC2)occ1OCCCCCSc1ccnc2cc(C(F)(F)F)ccc12 [EHT1864] | Same results have been obtained | methacholine and KCl contractions are inhibited in both group of bronchial rings; also recorded: bronchial reactivities of control and HDM sensitized-mice are similar |  |  |  |
| CCN(CC)CCCC(C)Nc1nc(C)cc(Nc2ccc3nc(C)cc(N)c3c2)n1 (centres unmarked) [NSC23766] | Same results have been obtained |  | prevented methacholine-dependent bronchoconstriction (FIG. 3, B) in a dose-dependent manner; also recorded: comparable to that of salbutamol treatment | almost completely prevented the AHR to methacholine; also recorded: comparable to that of salbutamol treatment | absence of any effect |
| CC(C)(C)NCC(O)c1ccc(O)c(CO)c1 (centres unmarked) [salbutamol] |  |  | efficiency of NSC23766 aerosol inhalation is similar to that of salbutamol; also recorded: effect of NSC23766 aerosol inhalation was comparable to that of salbutamol treatment | effect of NSC23766 aerosol inhalation was comparable to that of salbutamol treatment |  |
